# Reference: paper PMC10649961, “Novel Mitochondria-Targeted Amphiphilic Aminophosphonium Salts and Lipids Nanoparticles: Synthesis, Antitumor Activity and Toxicity” (Nanomaterials, 2023)
# Like-named read-outs stand apart in the source and are kept apart here.
# Experiments:
# [1] = system: Staphylococcus aureus ATCC 6538 P FDA 209P; assay: Antimicrobial activity, serial microdilutions, Sa; type: cell-based; conditions: Staphylococcus aureus; for MIC: read-out: Minimum Inhibitory Concentration (MIC); for MBC: read-out: Minimum bactericidal and fungicidal concentrations (MBC, MFC)
# Procedure, shortened: (§1)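 Compounds were serially diluted in broth: Mueller-Hinton for the bacterial strains, Sabouraud for the yeast. Each determination was done in triplicate.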
# [2] = system: DU-145; assay: cells; conditions: Homo sapiens, DU-145, 48 h, read-out: Cytotoxic Effects (IC50), DU-145, MTT assay, 48 h
# [3] = system: MCF-7; conditions: calculated relative to the cell line WI38 (a)
# [4] = system: MRSA-2; assay: Antimicrobial activity, serial microdilutions, MRSA-2; type: cell-based, S. aureus; conditions: Staphylococcus aureus; for MIC: read-out: Minimum Inhibitory Concentration (MIC); for MBC: read-out: Minimum bactericidal and fungicidal concentrations (MBC, MFC)
# Procedure, shortened: as §1
# [5] = system: Candida albicans ATCC 10231; assay: Antimicrobial activity, serial microdilutions, Ca; type: cell-based; parameters: key to Minimum Inhibitory Concentration (MIC) / Minimum bactericidal and fungicidal concentrations (MBC, MFC): – means non-active; conditions: Ca
# Procedure, shortened: (§2)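 Serial microdilution in Mueller-Hinton broth for bacteria and Sabouraud broth for yeast. MRSA-1 is a clinical methicillin-resistant S. aureus isolate from a chronic tonsillitis patient. Run in triplicate.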
# [6] = system: Pseudomonas aeruginosa ATCC 9027; assay: Antimicrobial activity, serial microdilutions, Pa; type: cell-based; parameters: key to Minimum Inhibitory Concentration (MIC) / Minimum bactericidal and fungicidal concentrations (MBC, MFC): – means non-active
# Procedure, shortened: as §2
# [7] = system: PANC-1; assay: cells; conditions: Homo sapiens, PANC-1, 48 h, read-out: Cytotoxic Effects (IC50)
# [8] = system: PANC-1; conditions: calculated relative to the cell line WI38 (a)
# [9] = system: Hep G2; assay: cells; conditions: Homo sapiens, HepG2, 48 h, read-out: Cytotoxic Effects (IC50)
# [10] = system: Bacillus cereus ATCC 10702 NCTC 8035; assay: Antimicrobial activity, serial microdilutions, Bc; type: cell-based; parameters: key to Minimum bactericidal and fungicidal concentrations (MBC, MFC): – means non-active; conditions: for MIC / MBC: Bacillus cereus; for MIC: read-out: Minimum Inhibitory Concentration (MIC); for MBC: read-out: Minimum bactericidal and fungicidal concentrations (MBC, MFC)
# Procedure, shortened: as §2
# [11] = system: T98G; assay: cells; conditions: Homo sapiens, 48 h, read-out: Cytotoxic Effects (IC50)
# [12] = system: Hep G2
# [13] = system: Escherichia coli ATCC 25922; assay: Antimicrobial activity, serial microdilutions, Ec; type: cell-based; parameters: key to Minimum Inhibitory Concentration (MIC) / Minimum bactericidal and fungicidal concentrations (MBC, MFC): – means non-active
# Procedure, shortened: as §2
# [14] = system: MRSA-1; assay: Antimicrobial activity, serial microdilutions, MRSA-1; type: cell-based, S. aureus; conditions: Staphylococcus aureus; for MIC: read-out: Minimum Inhibitory Concentration (MIC); for MBC: read-out: Minimum bactericidal and fungicidal concentrations (MBC, MFC)
# Procedure, shortened: as §2
# [15] = system: SK-OV-3; assay: cells; conditions: Homo sapiens, SK-OV-3, 48 h, read-out: Cytotoxic Effects (IC50)
# [16] = system: HuTu 80; conditions: calculated relative to the cell line WI38 (a)
# [17] = system: M-HeLa; assay: cells; conditions: Homo sapiens, 48 h, read-out: Cytotoxic Effects (IC50)
# [18] = system: SK-OV-3; conditions: reference normal cell line not marked at the place (ns cells)
# [19] = system: T98G; conditions: calculated relative to the cell line WI38 (a)
# [20] = system: PC3; conditions: calculated relative to the cell line WI38 (a)
# [21] = system: DU-145; conditions: calculated relative to the cell line WI38 (a)
# [22] = system: A549; assay: cells; conditions: Homo sapiens, A549, 48 h, read-out: Cytotoxic Effects (IC50)
# [23] = system: M-HeLa; conditions: calculated relative to the cell line WI38 (a)
# [24] = system: MCF-7; assay: cells; conditions: Homo sapiens, MCF7, 48 h, read-out: Cytotoxic Effects (IC50)
# [25] = system: HuTu 80; assay: cells; conditions: Homo sapiens, HuTu80, 48 h, read-out: Cytotoxic Effects (IC50)
# [26] = system: A549
# [27] = system: Enterococcus faecalis ATCC 29212; assay: Antimicrobial activity, serial microdilutions, Ef; type: cell-based; parameters: key to Minimum Inhibitory Concentration (MIC) / Minimum bactericidal and fungicidal concentrations (MBC, MFC): – means non-active; conditions: for MIC: Enterococcus faecalis, ATCC29212, read-out: Minimum Inhibitory Concentration (MIC)
# Procedure, shortened: as §1
# [28] = reference normal cell line not marked at the place (ns cells)
# [29] = calculated relative to the cell line WI38 (a)
SMILES,MIC [1] [µM],MBC [1] [µM],IC50 [2] [µM],selectivity index (SI) [3],MIC [4] [µM],MBC [4] [µM],Minimum Inhibitory Concentration (MIC) [5],"Minimum bactericidal and fungicidal concentrations (MBC, MFC) [5]",Minimum Inhibitory Concentration (MIC) [6],"Minimum bactericidal and fungicidal concentrations (MBC, MFC) [6]",IC50 [7] [µM],selectivity index (SI) [8],IC50 [9] [µM],MIC ([10]; Bc) [µM],IC50 [11] [µM],"Minimum bactericidal and fungicidal concentrations (MBC, MFC) [13]",MIC [14] [µM],MBC [14] [µM],IC50 [15] [µM],selectivity index (SI) [16],also measured
"CCCCCC[P+](c1ccccc1)(c1ccccc1)N(CC)CC [6a, (Diethylamino)(hexyl)diphenylphosphonium iodide]",62.5 ± 5.5,125 ± 10,2.6 ± 0.3,1.6,62.5 ± 5.6,62.5 ± 5.6,–,–,–,–,5.5 ± 0.4,5.0,34.4 ± 2.4,31.3 ± 2.3,18.4 ± 1.5,–,62.5 ± 5.3,500 ± 47,36.8 ± 2.6,277,"MBC [10]: 500 ± 46 µM; selectivity index (SI) [12, 28]: ns (ns—no selectivity); Minimum Inhibitory Concentration (MIC) [13]: –; IC50 [17]: 5.8 ± 0.4 µM; selectivity index (SI) [18]: ns (ns—no selectivity); selectivity index (SI) [19]: 1.5; selectivity index (SI) [20]: 6.9; selectivity index (SI) [21]: 11; IC50 [22]: 48.2 ± 3.4 µM; selectivity index (SI) [23]: 4.8; IC50 [24]: 17 ± 1.3 µM; IC50 [25]: 0.1 ± 0.007 µM; selectivity index (SI) [26, 28]: ns (ns—no selectivity); Minimum bactericidal and fungicidal concentrations (MBC, MFC) [27]: –; MIC [27]: 125 ± 11 µM"
"CCCCCCCC[P+](c1ccccc1)(c1ccccc1)N(CC)CC [6b, (Diethylamino)(octyl)diphenylphosphonium iodide]",7.8 ± 0.6,125 ± 11,0.8 ± 0.07,1.7,7.8 ± 0.6,31.3 ± 2.5,–,–,–,–,1.3 ± 0.1,12,11.6 ± 0.9,3.9 ± 0.4,3.4 ± 0.2,–,7.8 ± 0.6,31.3 ± 2.6,17.6 ± 1.4,81,"Minimum bactericidal and fungicidal concentrations (MBC, MFC) ([10]; Bc): –; selectivity index (SI) [12, 29]: 1.4; Minimum Inhibitory Concentration (MIC) [13]: –; IC50 [17]: 0.95 ± 0.08 µM; selectivity index (SI) [18]: ns (ns—no selectivity); selectivity index (SI) [19]: 5.0; selectivity index (SI) [20]: 19; selectivity index (SI) [21]: 20; IC50 [22]: 13 ± 1.1 µM; selectivity index (SI) [23]: 17; IC50 [24]: 9.5 ± 0.8 µM; IC50 [25]: 0.2 ± 0.01 µM; selectivity index (SI) [26, 29]: 1.2; Minimum bactericidal and fungicidal concentrations (MBC, MFC) [27]: –; MIC [27]: 62.5 ± 5.5 µM"
"CCCCCCCC[P+](c1ccccc1)(c1ccccc1)c1ccccc1 [compound 8, Octyltriphenylphosphonium iodide, reference compound]",0.9 ± 0.07,62.5 ± 5.3,0.4 ± 0.03,2.2,3.9 ± 0.3,15.6 ± 1.3,–,–,–,–,0.3 ± 0.02,31,1.6 ± 0.1,0.9 ± 0.07,0.6 ± 0.05,–,1.9 ± 0.1,15.6 ± 1.2,9.8 ± 0.7,102,"MBC [10]: 500 ± 47 µM; selectivity index (SI) [12, 29]: 5.8; MIC ([13]; Escherichia coli, ATCC25922, read-out: Minimum Inhibitory Concentration (MIC)): 500 ± 47 µM; IC50 [17]: 0.45 ± 0.04 µM; selectivity index (SI) [18]: ns (ns—no selectivity); selectivity index (SI) [19]: 15; selectivity index (SI) [20]: 23; selectivity index (SI) [21]: 23; IC50 [22]: 8.7 ± 0.7 µM; selectivity index (SI) [23]: 20; IC50 [24]: 4.2 ± 0.3 µM; IC50 [25]: 0.09 ± 0.006 µM; selectivity index (SI) [26, 29]: 1.1; Minimum bactericidal and fungicidal concentrations (MBC, MFC) [27]: –; MIC [27]: 15.6 ± 1.2 µM"
